Laboratory results taken from ChEMBL document CHEMBL5465560, “Selectivity Literature for EUbOPEN Chemogenomic Library” (2024).

Legend:
[1] = molecular target: Serine/threonine-protein kinase SIK1 (Homo sapiens) (UniProt P57059); conditions: at 10 µM
[2] = molecular target: Tyrosine-protein kinase SYK (Homo sapiens, UniProt P43405); assay: Selectivity interaction (ActivX KiNativ screen (ex vivo kinase selectivity in human PBMCs)) EUB0001619a SYK; type: cell-based; conditions: PBMC, at 1 µM
[3] = tested on: Serine/threonine-protein kinase B-raf (Homo sapiens), P15056 [V600E]; assay: (§1) Selectivity interaction (KinomeScan (DiscoverX)) EUB0001619a BRAF; conditions: at 1 µM
Serine/threonine-protein kinase B-raf (Homo sapiens), P15056 [V600E], sequence (P15056 whole entry V600E): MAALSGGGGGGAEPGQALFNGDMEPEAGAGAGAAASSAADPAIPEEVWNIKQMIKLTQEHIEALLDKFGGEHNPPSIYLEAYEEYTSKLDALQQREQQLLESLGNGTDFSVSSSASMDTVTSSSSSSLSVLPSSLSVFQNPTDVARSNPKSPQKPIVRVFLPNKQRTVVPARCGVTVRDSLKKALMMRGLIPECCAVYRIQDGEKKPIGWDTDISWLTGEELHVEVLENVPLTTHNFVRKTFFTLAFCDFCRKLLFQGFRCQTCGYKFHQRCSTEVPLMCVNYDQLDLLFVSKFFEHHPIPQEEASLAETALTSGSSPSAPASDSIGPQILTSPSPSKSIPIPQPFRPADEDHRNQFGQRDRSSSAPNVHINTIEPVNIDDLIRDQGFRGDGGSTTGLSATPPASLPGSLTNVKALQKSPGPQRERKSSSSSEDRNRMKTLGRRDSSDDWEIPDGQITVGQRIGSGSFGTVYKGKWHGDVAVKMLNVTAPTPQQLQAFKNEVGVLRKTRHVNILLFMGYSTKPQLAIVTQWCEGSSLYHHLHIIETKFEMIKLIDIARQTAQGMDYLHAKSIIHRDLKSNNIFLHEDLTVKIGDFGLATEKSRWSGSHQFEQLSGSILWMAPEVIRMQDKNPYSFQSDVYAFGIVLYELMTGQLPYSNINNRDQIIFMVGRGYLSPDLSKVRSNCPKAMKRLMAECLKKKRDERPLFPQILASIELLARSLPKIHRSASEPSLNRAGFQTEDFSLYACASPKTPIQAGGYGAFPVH

[4] = molecular target: Serine/threonine-protein kinase B-raf (Homo sapiens) (UniProt P15056); assay: as §1; conditions: at 1 µM
Serine/threonine-protein kinase B-raf (Homo sapiens), sequence (P15056 whole entry): as the sequence (P15056 whole entry V600E) above, with E600V counted along it

[5] = molecular target: Non-receptor tyrosine-protein kinase TYK2 (Homo sapiens, UniProt P29597); conditions: at 10 µM
Non-receptor tyrosine-protein kinase TYK2, sequence (P29597 whole entry): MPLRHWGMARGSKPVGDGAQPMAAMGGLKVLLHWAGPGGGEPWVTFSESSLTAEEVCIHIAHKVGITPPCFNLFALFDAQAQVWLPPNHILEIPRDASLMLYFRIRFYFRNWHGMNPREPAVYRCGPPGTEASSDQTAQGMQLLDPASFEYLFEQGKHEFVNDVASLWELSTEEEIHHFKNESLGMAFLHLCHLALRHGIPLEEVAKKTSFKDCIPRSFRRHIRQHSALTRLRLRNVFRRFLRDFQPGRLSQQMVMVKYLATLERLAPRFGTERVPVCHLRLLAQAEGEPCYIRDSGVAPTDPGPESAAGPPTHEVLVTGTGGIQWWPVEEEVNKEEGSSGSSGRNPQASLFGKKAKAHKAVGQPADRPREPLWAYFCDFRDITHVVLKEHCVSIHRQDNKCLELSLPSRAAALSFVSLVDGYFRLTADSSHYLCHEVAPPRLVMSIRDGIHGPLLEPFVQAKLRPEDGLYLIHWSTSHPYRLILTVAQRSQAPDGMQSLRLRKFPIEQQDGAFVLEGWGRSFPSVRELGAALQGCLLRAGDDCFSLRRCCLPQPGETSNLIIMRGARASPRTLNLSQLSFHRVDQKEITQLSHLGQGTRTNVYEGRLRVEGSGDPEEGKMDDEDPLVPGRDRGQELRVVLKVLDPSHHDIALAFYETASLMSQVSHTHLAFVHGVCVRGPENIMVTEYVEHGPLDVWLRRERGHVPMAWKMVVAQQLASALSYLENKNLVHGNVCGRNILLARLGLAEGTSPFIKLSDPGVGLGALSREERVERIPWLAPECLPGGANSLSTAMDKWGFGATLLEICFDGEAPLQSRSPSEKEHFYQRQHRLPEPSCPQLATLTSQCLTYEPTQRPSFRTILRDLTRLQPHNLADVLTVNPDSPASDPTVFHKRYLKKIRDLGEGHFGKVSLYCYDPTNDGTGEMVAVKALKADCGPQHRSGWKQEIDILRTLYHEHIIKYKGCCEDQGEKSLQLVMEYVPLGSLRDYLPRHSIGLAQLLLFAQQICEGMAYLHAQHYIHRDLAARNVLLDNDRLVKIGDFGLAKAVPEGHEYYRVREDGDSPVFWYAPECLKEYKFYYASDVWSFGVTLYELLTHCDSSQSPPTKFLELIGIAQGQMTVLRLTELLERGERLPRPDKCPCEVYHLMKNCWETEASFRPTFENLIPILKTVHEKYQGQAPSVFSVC

[6] = molecular target: RAC-alpha serine/threonine-protein kinase (Homo sapiens, UniProt P31749); conditions: at 10 µM
RAC-alpha serine/threonine-protein kinase, sequence (P31749 whole entry): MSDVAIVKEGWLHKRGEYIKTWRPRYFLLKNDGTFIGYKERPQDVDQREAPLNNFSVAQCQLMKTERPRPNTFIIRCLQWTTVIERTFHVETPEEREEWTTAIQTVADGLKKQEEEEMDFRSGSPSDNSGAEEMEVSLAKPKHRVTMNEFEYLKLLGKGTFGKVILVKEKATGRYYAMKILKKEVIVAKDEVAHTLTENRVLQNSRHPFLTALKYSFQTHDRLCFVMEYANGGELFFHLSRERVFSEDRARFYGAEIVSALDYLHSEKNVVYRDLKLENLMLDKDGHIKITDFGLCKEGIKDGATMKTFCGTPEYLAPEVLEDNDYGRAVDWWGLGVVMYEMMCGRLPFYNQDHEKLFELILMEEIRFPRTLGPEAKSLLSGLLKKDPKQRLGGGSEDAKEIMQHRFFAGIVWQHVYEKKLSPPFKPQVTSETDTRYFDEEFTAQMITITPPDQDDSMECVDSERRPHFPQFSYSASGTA

[7] = molecular target: Cyclin-dependent kinase 5 (Homo sapiens, UniProt Q00535); assay: Selectivity interaction (KinomeScan (DiscoverX)) EUB0000229b CDK5; conditions: at 10 µM
Cyclin-dependent kinase 5, sequence (Q00535 whole entry, looked up, canonical isoform): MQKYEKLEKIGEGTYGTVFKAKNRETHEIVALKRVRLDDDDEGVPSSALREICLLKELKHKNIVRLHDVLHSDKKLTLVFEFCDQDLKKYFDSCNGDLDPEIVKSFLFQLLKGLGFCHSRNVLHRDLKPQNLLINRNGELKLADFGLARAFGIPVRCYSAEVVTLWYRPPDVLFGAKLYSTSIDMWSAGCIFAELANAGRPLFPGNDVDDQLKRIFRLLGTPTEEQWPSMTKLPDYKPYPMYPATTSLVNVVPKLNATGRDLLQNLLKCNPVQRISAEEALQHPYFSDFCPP

[8] = molecular target: Phosphatidylinositol 4,5-bisphosphate 3-kinase catalytic subunit gamma isoform (Homo sapiens) (UniProt P48736); assay: Selectivity interaction (KinomeScan (DiscoverX)) EUB0001049a PIK3CG; conditions: at 1 µM
[9] = molecular target: Mitogen-activated protein kinase kinase kinase 11 (Homo sapiens) (UniProt Q16584); assay: Selectivity interaction (KinomeScan (DiscoverX)) EUB0001049a MAP3K11; conditions: at 1 µM
Mitogen-activated protein kinase kinase kinase 11 (Homo sapiens), sequence (Q16584 whole entry, looked up): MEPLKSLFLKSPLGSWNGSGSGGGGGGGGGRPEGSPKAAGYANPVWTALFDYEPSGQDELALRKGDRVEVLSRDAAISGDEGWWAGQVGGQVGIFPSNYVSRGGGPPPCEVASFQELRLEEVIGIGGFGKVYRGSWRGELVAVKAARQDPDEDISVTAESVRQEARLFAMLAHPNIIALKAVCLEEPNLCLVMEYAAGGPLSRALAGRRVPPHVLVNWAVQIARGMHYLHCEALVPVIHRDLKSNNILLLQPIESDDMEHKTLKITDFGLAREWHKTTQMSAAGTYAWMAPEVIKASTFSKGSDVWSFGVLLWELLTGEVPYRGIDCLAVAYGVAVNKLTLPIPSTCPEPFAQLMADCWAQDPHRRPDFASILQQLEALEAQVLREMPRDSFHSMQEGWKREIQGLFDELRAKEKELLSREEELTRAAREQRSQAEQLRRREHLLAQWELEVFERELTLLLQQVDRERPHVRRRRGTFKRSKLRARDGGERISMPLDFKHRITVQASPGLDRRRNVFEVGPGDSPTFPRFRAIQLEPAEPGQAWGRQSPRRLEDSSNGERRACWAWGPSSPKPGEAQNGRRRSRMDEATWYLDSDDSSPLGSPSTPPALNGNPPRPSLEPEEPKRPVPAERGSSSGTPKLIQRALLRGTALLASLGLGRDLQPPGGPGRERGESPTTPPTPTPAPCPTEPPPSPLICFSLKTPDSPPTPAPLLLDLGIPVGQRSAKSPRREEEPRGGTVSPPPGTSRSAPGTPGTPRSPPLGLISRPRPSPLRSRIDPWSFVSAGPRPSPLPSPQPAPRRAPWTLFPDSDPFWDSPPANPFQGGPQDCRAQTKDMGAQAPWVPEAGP

[10] = molecular target: T1, cGMP-dependent protein kinase 2 (Homo sapiens) (UniProt Q13237); assay: Selectivity interaction (KinomeScan (DiscoverX)) EUB0000666a PRKG2; conditions: at 10 µM
T1 sequence (whole entry): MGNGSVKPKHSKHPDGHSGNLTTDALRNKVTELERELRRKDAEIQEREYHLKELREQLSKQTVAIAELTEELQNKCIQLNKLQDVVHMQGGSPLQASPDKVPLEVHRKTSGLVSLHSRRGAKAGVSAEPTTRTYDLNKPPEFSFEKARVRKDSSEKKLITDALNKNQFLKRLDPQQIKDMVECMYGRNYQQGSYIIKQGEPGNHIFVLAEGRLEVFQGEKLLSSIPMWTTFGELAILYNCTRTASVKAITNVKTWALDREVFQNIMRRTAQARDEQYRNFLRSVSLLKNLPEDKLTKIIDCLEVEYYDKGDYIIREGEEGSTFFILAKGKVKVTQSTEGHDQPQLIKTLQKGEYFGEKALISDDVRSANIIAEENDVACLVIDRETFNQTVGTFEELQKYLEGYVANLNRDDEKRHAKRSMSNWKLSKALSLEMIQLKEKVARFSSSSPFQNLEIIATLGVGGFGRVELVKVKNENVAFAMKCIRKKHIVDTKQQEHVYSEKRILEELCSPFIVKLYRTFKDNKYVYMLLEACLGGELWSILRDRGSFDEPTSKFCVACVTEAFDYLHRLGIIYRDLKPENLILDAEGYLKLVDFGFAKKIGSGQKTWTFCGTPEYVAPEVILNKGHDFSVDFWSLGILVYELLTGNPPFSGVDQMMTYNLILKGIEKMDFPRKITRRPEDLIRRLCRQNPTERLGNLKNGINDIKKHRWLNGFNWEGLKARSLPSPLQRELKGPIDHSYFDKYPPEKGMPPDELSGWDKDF

[11] = molecular target: Sphingosine kinase 1 (Homo sapiens) (UniProt Q9NYA1); assay: Selectivity interaction (Adapta Assay) EUB0001632a SPHK1; conditions: at 10 µM
[12] = molecular target: Tyrosine-protein kinase Lyn (Homo sapiens, UniProt P07948); assay: Selectivity interaction (Kinase screening (Upstate/Millipore)) EUB0000604a LYN
[13] = molecular target: Homeodomain-interacting protein kinase 1 (Homo sapiens, UniProt Q86Z02); assay: Selectivity interaction (KinomeScan (DiscoverX)) EUB0000695a HIPK1; conditions: at 100 nM
Homeodomain-interacting protein kinase 1, sequence (Q86Z02 whole entry, looked up): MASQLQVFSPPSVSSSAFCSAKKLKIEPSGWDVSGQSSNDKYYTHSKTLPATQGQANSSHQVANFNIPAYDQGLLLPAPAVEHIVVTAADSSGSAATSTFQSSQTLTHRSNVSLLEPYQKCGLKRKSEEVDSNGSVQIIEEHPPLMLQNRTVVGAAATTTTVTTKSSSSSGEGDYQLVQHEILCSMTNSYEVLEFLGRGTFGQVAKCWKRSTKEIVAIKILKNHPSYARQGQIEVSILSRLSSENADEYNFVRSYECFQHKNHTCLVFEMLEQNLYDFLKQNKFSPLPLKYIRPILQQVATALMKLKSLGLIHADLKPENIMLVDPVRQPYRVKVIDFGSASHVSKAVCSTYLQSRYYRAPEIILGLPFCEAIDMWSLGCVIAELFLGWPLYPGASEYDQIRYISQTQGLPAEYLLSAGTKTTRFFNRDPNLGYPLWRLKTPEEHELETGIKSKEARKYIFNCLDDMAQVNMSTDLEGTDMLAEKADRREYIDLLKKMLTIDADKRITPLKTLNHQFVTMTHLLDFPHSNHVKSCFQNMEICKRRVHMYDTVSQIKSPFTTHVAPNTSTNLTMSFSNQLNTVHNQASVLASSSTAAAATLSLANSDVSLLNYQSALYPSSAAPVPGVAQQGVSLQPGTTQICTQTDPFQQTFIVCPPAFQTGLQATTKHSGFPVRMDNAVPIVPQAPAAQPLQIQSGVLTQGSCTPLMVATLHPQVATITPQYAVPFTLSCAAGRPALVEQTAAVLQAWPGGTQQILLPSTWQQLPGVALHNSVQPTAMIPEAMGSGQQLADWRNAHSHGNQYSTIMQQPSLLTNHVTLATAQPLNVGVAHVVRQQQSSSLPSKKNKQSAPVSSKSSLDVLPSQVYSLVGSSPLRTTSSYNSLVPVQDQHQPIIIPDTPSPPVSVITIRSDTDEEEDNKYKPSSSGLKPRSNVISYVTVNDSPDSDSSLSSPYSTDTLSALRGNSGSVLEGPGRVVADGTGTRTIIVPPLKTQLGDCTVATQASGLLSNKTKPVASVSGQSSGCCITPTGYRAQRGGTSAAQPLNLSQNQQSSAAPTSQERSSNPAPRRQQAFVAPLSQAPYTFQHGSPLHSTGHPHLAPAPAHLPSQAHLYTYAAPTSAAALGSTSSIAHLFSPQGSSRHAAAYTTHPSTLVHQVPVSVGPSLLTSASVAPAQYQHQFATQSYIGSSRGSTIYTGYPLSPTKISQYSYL

[14] = molecular target: T2, Myosin-IIIb (Homo sapiens) (UniProt Q8WXR4); assay: Selectivity interaction (KinomeScan (DiscoverX)) EUB0000695a MYO3B; conditions: at 100 nM
T2 sequence (whole entry): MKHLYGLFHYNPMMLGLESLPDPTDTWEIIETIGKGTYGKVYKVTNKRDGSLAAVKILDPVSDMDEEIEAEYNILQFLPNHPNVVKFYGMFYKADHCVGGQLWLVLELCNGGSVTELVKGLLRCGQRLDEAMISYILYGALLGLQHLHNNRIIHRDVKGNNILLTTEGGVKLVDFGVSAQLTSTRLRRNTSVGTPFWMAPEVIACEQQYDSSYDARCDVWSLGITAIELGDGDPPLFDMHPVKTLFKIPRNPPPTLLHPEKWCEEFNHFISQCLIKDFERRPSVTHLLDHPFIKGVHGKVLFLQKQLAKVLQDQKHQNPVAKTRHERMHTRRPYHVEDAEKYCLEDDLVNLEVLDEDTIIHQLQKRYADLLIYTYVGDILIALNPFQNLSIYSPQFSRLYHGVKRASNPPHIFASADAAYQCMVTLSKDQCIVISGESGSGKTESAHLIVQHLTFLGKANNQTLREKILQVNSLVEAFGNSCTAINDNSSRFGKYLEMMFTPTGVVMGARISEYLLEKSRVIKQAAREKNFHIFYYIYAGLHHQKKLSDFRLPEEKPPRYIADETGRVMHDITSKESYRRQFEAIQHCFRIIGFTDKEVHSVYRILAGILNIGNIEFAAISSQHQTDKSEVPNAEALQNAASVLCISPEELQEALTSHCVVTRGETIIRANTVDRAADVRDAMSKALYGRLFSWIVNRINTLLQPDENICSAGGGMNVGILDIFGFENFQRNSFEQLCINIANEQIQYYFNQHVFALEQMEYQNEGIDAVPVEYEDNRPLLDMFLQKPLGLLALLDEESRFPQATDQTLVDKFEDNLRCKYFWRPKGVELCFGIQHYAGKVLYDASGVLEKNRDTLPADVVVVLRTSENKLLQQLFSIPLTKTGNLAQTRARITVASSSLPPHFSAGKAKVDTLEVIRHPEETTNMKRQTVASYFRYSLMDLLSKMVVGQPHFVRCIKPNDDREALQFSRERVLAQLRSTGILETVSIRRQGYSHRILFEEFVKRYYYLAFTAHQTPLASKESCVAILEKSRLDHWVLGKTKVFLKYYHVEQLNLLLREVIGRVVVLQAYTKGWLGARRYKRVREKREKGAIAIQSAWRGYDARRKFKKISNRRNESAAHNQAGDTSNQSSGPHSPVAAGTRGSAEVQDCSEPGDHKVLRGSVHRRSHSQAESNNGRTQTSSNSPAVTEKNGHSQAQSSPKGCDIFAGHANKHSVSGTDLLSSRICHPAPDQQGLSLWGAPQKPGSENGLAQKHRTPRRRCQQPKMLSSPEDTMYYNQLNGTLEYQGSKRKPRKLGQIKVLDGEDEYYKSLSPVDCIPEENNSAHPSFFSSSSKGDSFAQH

Question: CCN(CC)CCCCNc1ncc2cc(-c3cc(OC)cc(OC)c3)c(NC(=O)NC(C)(C)C)nc2n1 was tested. Which % of control [1] did it give?
Answer: 100%

Question: With N#Cc1cccc(-c2c[nH]c3ncnc(N4CCOCC4)c23)c1 as the compound, how does the % of inhibition [2] read?
Answer: 7%

Question: And the % of control [3]?
Answer: 69%

Question: What about the % of control [4] of the same compound?
Answer: 80%

Question: For Cc1cc([C@@H](C)Nc2ccccc2C(=O)O)c2nc(N3CCOCC3)cc(=O)n2c1 [AZD-6482], which % of control [5] is on record?
Answer: 100%

Question: What about the % of control [6] of the same compound?
Answer: 100%

Question: How did the % binding [7] turn out when COc1cc(N(C)c2ccnc3ccc(C(F)(F)F)cc23)cc(OC)c1OC was run?
Answer: 97%

Question: COc1cc(Nc2nc(C)cc(-c3cnn4nc(OC)ccc34)n2)cc(C(F)(F)F)c1 was tested. Which % of control [8] did it give?
Answer: 93%

Question: And the % of control [9]?
Answer: 79%

Question: With O=C(NOC[C@H](O)CO)c1ccc(F)c(F)c1Nc1ccc(I)cc1F as the compound, how does the % of control [10] read?
Answer: 86%

Question: Which % of inhibition [11] does the source give for Cn1cc(-n2cnc3c(NCc4nc5cc(Cl)c(Cl)cc5[nH]4)nc(N4CCOCC4)nc32)cn1 here?
Answer: 53.7%

Question: Cc1cnc(Nc2ccc(F)cc2Cl)nc1-c1c[nH]c(C(=O)N[C@H](CO)c2cccc(Cl)c2)c1 was tested. Which % of inhibition [12] did it give?
Answer: 7%

Question: Which % of control [13] does the source give for Cc1cc(F)c(C(=O)Nc2cccc(-c3nncn3C(C)C)n2)cc1-n1cnc(C2CC2)c1 here?
Answer: 100%

Question: And the % of control [14]?
Answer: 80%
